Experiment [1] relates to MRC-5 cells (nontransformed human lung fibroblast). The experiment is described as follows: MTT assay. Format: cell-based. On the technique in general: Tetrazolium dyes change colour on reduction, which living cells bring about.
Experiment [2] concerns S. aureus ATCC 6538 biofilm. In words: Biofilm metabolic activity by resazurin. Format: cell-based, Staphylococcus aureus. The note with it: at some concentrations, Figure 4. As for the experimental part:
Resazurin (7-hydroxy-3H-phenoxazin-3-one-10-oxide) is a viability dye used to assess the metabolic activity of biofilms. After incubation at 37 °C/48 h, a volume of 10 µL of resazurin indicator solution was added to each well. Plates were incubated in the dark for 3 h at 37 °C. The OD was measured at 590 nm using an enzyme-linked immunosorbent assay (ELISA) plate reader. In addition, the color change from purple to pink indicated the metabolic activity of the formed biofilm.
In general terms: Resazurin is reduced to fluorescent resorufin, in cell work by metabolically active cells.

Experiment [3] concerns C. albicans (isolate). The experiment is described as follows: Microdilution with resazurin, antifungal. In kind it is cell-based, Candida albicans. The note with it: extracts and usnic acid. As for the experimental part:
(§1) The tested methanol, acetone, and n-hexane extracts, as well as the component (usnic acid) of X. stenophylla, were dissolved in 10% dimethyl sulfoxide (DMSO) and then diluted into the nutrient liquid medium. DMSO was obtained from Acros Organics (Fair Lawn, NJ, USA). Resazurin was obtained from Alfa Aesar GmbH & Co. (KG, Karlsruhe, Germany).
(§2) The antimicrobial activity of the extracts and components was tested against 19 microorganisms. The experiment involved 15 strains of bacteria (i.e., 6 standard strains: Staphylococcus aureus ATCC 6538, Bacillus subtilis ATCC 6633, Proteus mirabilis ATCC 12453, Pseudomonas aeruginosa ATCC 27853, Klebsiella pneumoniae ATCC 70063, and Escherichia coli ATCC 25922; 9 isolates: Staphylococcus aureus, Escherichia coli, Salmonella enterica, Salmonella Typhimurium, Proteus mirabilis, Klebsiella pneumoniae, Pseudomonas aeruginosa, Bacillus subtilis, and Bacillus cereus). In addition, four fungal strains (i.e., two standard strains: Candida albicans ATCC 10231 and Aspergillus niger ATCC 16888; two isolates: Saccharomyces cerevisiae and Candida albicans) were tested. All isolates were a generous gift from the Institute of Public Health, Kragujevac. The other microorganisms were provided from the collection held by the Microbiology Laboratory Faculty of Science, University of Kragujevac.
(§3) The bacterial suspensions were prepared by the direct colony method. The turbidity of the initial suspension was adjusted using a densitometer (DEN-1, BioSan, Riga, Latvia). When adjusted to the turbidity of the 0.5 McFarland’s standard (Andrews, 2005) the bacteria suspension contained approximately 10^8 colony-forming units (CFU)/mL, and the suspension of yeast contained 10^6 CFU/mL; 1:100 dilutions of the initial suspension were additionally prepared in sterile 0.85% saline. The suspensions of fungal spores were prepared by gentle stripping of spores from slopes with growing mycelia. The resulting suspensions were 1:1000 diluted in sterile 0.85% saline.
(§4) Antimicrobial activity was tested by determining the minimum inhibitory concentrations (MICs) and minimum microbicidal concentrations (MBCs) using the microdilution plate method with resazurin [56]. The 96-well plates were prepared by dispensing 100 μL of Mueller–Hinton broth for bacteria and Sabouard broth for fungi into each well. A 10 μL aliquot from the stock solution of the tested extract or component was added to the first row of the plate. Then, two-fold serial dilutions were performed using a multichannel pipette. The obtained concentration range was from 10 to 0.08 mg/mL. The method is described in detail in [76].
(§5) Each test included growth control and sterility control.
(§6) Minimum microbicidal concentrations were determined by plating 10 μL of samples from wells where no indicator color change or no mycelia growth was recorded on a nutrient agar medium. At the end of the incubation period, the lowest concentration with no growth (no colony) was defined as the minimum microbicidal concentration.
Background: In broth dilution the organism is exposed to a series of concentrations in liquid medium.

The subject of experiment [4] is C. albicans ATCC 10231. In words: Microdilution with resazurin, antifungal. In kind it is cell-based, Candida albicans. The note with it: extracts and usnic acid. As for the experimental part: as §1, §2, §3, §4, §5, §6
Experiment [5] concerns P. mirabilis (isolate). The experiment is described as follows: Microdilution with resazurin, antibacterial. In kind it is cell-based, Proteus mirabilis. As to the method: as §1, §2, §3, §4, §5, §6
In experiment [6] the test system is P. mirabilis ATCC 12453. In words: Microdilution with resazurin, antibacterial. In kind it is cell-based, Proteus mirabilis. As for the experimental part:
as §1, §2, §3, §4, §5, §6

Experiment [7] deals with A. niger ATCC 16888. The experiment is described as follows: Microdilution with resazurin, antifungal. The note with it: extracts and usnic acid. In kind it is cell-based, Aspergillus niger. As to the method:
as §1, §2, §3, §4, §5, §6

Experiment [8] relates to B. cereus (isolate). In words: Microdilution with resazurin, antibacterial. In kind it is cell-based, Bacillus cereus. As for the experimental part:
as §1, §2, §3, §4, §5, §6

Experiment [9] has as its system HCT 116 cells (colon cancer). The experiment is described as follows: MTT assay. In kind it is cell-based, human.
Experiment [10] concerns B. subtilis (isolate). The experiment is described as follows: Microdilution with resazurin, antibacterial. In kind it is cell-based, Bacillus subtilis. As for the experimental part:
as §1, §2, §3, §4, §5, §6

Experiment [11] relates to B. subtilis ATCC 6633. In words: Microdilution with resazurin, antibacterial. In kind it is cell-based, Bacillus subtilis. As to the method:
as §1, §2, §3, §4, §5, §6

Experiment [12] concerns S. cerevisiae (isolate). In words: Microdilution with resazurin, antifungal. Format: cell-based, Saccharomyces cerevisiae. The note with it: extracts and usnic acid. As for the experimental part:
as §1, §2, §3
as §4, with “[76]. […]” for “[76].”
Minimum microbicidal concentrations were determined by plating 10 μL of samples from wells where no indicator color change or no mycelia growth was recorded on a nutrient agar medium. […]

A short description of experiment [13]: Hydroxyl radical scavenging activity (2-deoxyribose). Format: biochemical. The note with it: mean ± SD, triplicate. As to the method:
All chemicals for the antioxidant activity test were purchased from Sigma Aldrich. All measurements were conducted in triplicate, and a Shimadzu UV-1800 spectrophotometer was used for all measurements during antioxidant activity experiments. The IC50 value was used for comparing different radical scavenging effects between investigated extracts, isolated compounds, and positive controls. The ability to inhibit non-site-specific peroxidation mediated by hydroxyl radicals for […], and XSH was determined using the method previously described in the literature. During the experiment, in a reaction mixture that contained 500 μL of 5.6 mM 2-deoxy-D-ribose in KH2PO4-NaOH buffer (50 mM, pH 7.4), 100 μL of 1.0 mM aqueous ascorbic acid, 100 μL of 1.0 mM H2O2, and 200 μL of premixed solution of 100 μM FeCl3 and […] EDTA (1:1 v/v), 100 μL of extract dissolved in water was added. The tubes were vigorously shaken, vortexed, and incubated for 30 min at 50 °C. […] The mixture was vortexed again and heated in a water bath for 30 min at 50 °C. […] Ac stands for absorbance of the control (which contains all reagents, except the tested extract or compound), and As is the absorbance of the sample.

In brackets after ≈: the same amount, converted by molar mass. Where two headings read alike, the source gives them in different places. Marks after values point to notes of the source that are not given here.

Usually IC50 stands for the concentration that inhibits the measured activity by half. A low value points to greater potency in that assay. By MFC is commonly meant the lowest tested concentration that kills the fungus rather than only halting it. Higher therefore signals less potent killing. One may read the MIC as the smallest concentration in the dilution series that meets the test's criterion for growth inhibition. Usually MBC stands for the lowest tested concentration that kills the bacteria rather than only halting them. Turning to usnic acid, the “GI50 (50% growth inhibition)” value in [1] (MRC-5, 24 h) was found to be 42.97 ± 1.56 µg/mL; in [1] (MRC-5, 48 h) it was 41.31 ± 0.56 µg/mL; in [1] (MRC-5, 72 h) it was 36.73 ± 0.92 µg/mL; in experiment [9] (HCT 116, 24 h) it was 41.94 ± 3.12 µg/mL; in [9] (HCT 116, 48 h) it was 27.21 ± 1.94 µg/mL; in experiment [9] (HCT 116, 72 h), 15.87 ± 2.89 µg/mL. Further, the IC50 in experiment [1] (MRC-5, 24 h) is 66.18 ± 1.72 µg/mL; in experiment [1] (MRC-5, 48 h) it was 78.54 ± 0.87 µg/mL; in experiment [1] (MRC-5, 72 h), 53.14 ± 1.04 µg/mL; in experiment [9] (HCT 116, 24 h), >100 µg/mL; in experiment [9] (HCT 116, 48 h) it was 83.99 ± 4.22 µg/mL; in experiment [9] (HCT 116, 72 h), 23.79 ± 2.10 µg/mL. The “TGI (total growth inhibition)” value in experiment [1] (MRC-5, 24 h) is >100 µg/mL; in [1] (MRC-5, 48 h), 93.25 ± 0.08 µg/mL; in experiment [1] (MRC-5, 72 h), 89.15 ± 0.25 µg/mL; in experiment [9] (HCT 116, 24 h), 79.12 ± 1.18 µg/mL; in experiment [9] (HCT 116, 48 h) it was 63.58 ± 0.90 µg/mL; in experiment [9] (HCT 116, 72 h) it was 64.91 ± 1.44 µg/mL. The “Metabolic activity of biofilm compared to the growth control” value in [2] was “lower”. Further, the MFC in experiment [3] is recorded as <10 mg/mL; in experiment [4] it was <10 mg/mL; in experiment [7] it was <10 mg/mL; in [12], 10 mg/mL. Further, the MIC in experiment [3] is 10 mg/mL; in [4], 10 mg/mL; in experiment [5] (extracts and usnic acid), <10 mg/mL; in experiment [6] (extracts and usnic acid), <10000 µg/mL; in experiment [7], 10 mg/mL; in experiment [8] (extracts and usnic acid), <80000 ng/mL. Further, the MIC in [10] (extracts and usnic acid) was <80 µg/mL; in experiment [11] (extracts and usnic acid), <80000 ng/mL; in experiment [12] it was 5 mg/mL. Further, the MBC was <10 mg/mL in experiment [5] (extracts and usnic acid); <10000 µg/mL in experiment [6] (extracts and usnic acid); <80000 ng/mL in [8] (extracts and usnic acid); <80000 ng/mL in experiment [10] (extracts and usnic acid); <80000 ng/mL in experiment [11] (extracts and usnic acid). In addition, the “Hydroxyl Radical Scavenging Activity (IC50)” value in experiment [13] is given as 120.05 ± 0.85 ^a,b,c,d µg/mL.

On to `CN(C)[C@@H]1C(O)=C(C(N)=O)C(=O)[C@@]2(O)C(O)=C3C(=O)c4c(O)cccc4[C@@](C)(O)[C@H]3C[C@@H]12` [TC, tetracycline], for which the MBC in experiment [5] (Proteus mirabilis, antibiotics, read-out: MBC) is > 0.128 mg/mL; in experiment [6] (Proteus mirabilis, ATCC12453, antibiotics, read-out: MBC), 4 µg/mL (≈ 9 µM); in [8] (Bacillus cereus, antibiotics, read-out: MBC), 500 ng/mL (≈ 1.13 µM); in experiment [10] (Bacillus subtilis, antibiotics, read-out: MBC), 250 ng/mL (≈ 0.563 µM); in experiment [11] (Bacillus subtilis, ATCC6633, antibiotics, read-out: MBC), 370 ng/mL (≈ 0.833 µM). The MIC was > 0.128 mg/mL in experiment [5] (Proteus mirabilis, antibiotics, read-out: MIC); 2 µg/mL (≈ 4.5 µM) in experiment [6] (Proteus mirabilis, ATCC12453, antibiotics, read-out: MIC); 250 ng/mL (≈ 0.563 µM) in experiment [8] (Bacillus cereus, antibiotics, read-out: MIC); < 0.06 µg/mL in experiment [10] (Bacillus subtilis, antibiotics, read-out: MIC); 250 ng/mL (≈ 0.563 µM) in [11] (Bacillus subtilis, ATCC6633, antibiotics, read-out: MIC).

The record behind these values is publication PMC9269301, “Phytochemical Analysis, Antioxidant, Antimicrobial, and Cytotoxic Activity of Different Extracts of Xanthoparmelia stenophylla Lichen from Stara Planina, Serbia” (Plants, 2022).
